This is an account of results in patent publication US12305177B2, “Methods and platforms for sustainable high yield terpenoid production” (Purdue Research Foundation, priority 2019, dated 2025).

One assay addresses T1, AtPMK (Arabidopsis thaliana, UniProt Q9C6T1).
T1 sequence (Q9C6T1 1-505): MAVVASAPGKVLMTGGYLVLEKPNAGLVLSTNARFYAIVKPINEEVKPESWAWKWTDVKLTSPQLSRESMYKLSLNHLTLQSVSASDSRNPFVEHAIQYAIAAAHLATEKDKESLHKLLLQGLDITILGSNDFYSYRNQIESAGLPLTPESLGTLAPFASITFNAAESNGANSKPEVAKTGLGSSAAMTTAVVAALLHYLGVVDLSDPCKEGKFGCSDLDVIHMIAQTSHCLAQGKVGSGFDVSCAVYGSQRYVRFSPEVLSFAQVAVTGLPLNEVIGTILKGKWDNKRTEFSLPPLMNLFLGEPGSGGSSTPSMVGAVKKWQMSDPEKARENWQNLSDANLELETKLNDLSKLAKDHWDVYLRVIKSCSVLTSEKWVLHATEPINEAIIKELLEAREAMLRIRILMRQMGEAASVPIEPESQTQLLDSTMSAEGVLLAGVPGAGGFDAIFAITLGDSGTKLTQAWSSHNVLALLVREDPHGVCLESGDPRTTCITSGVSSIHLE
To be noted: substrate of Arabidopsis PMK (AtPMK, At1g31910); previous characterization; cited from earlier work.

The next assay has as its target T2, A. thaliana Nudx3 (Arabidopsis thaliana, UniProt Q8L831).
T2 construct: His8 (N, cleaved yes); made in house; host or cells: E. coli BL21(DE3)
T2 sequence (Q8L831 1-772): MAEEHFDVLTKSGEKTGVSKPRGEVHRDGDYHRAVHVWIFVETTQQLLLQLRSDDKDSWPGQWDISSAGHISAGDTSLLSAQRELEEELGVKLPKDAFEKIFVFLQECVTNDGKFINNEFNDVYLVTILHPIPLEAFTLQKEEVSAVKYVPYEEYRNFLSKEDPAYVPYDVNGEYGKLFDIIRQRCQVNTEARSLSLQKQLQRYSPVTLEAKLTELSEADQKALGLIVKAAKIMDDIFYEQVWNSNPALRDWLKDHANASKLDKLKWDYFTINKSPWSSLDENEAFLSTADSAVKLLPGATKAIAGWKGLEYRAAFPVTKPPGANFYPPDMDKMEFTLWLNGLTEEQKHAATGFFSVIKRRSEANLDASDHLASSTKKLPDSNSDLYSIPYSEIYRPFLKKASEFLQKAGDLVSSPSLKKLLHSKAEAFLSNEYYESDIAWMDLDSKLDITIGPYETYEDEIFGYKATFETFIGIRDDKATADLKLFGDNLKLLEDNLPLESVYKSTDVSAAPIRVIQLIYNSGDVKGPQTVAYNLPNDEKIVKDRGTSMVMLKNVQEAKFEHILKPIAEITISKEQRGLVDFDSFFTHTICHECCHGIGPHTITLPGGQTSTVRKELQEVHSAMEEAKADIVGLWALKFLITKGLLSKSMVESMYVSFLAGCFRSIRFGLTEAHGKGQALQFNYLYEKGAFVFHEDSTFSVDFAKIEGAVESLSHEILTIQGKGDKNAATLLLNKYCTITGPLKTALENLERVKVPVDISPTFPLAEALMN
Nature of the assay: Phosphatase activity / steady-state kinetics of recombinant AtNudx3 (BIOMOL Green phosphate detection). It is filed as biochemical. To be noted: for Km / kcat: substrate of AtNudx3, 100 mM TAPS pH 8.5, 10 mM MgCl2, 37° C., means ± SD, n = 3. The method, then:
(§1) After removal of the cell debris by centrifugation, expressed proteins were purified from the supernatants by immobilized metal-affinity chromatography with HisPur Ni-NTA resin (ThermoFisher Scientific). Pure proteins were eluted with 50 mM Tris-HCL pH 8.0, 0.5 M NaCl buffer supplemented with 250 mM imidazole followed by buffer exchange to 50 mM Tris-HCl pH 8.0 and 0.2 M NaCl for storage. For the crystal screening and steady-state kinetic analysis described below, the N-terminal His8-tags of AtNudx1 and AtNudx3 were removed with thrombin and remaining histidine-tagged protein was removed by passing over HisPur Ni-NTA resin. AtNudx1 and AtNudx3 were further purified by size-exclusion chromatography on a Superdex 200 16/60 column (GE Lifesciences) equilibrated and eluted with 50 mM Tris-HCl pH 8.0 supplemented with 0.2 M NaCl and 2 mM dithiothreitol.
(§2) All enzyme assays described in the present disclosure were performed as follows. Phosphatase activity was monitored at 37° C. using BIOMOL Green reagent (Enzo Life Sciences) to detect and quantify released phosphate at 623 nm using a phosphate standard curve. The optimum pH for activity was determined using a three-component buffer system of 50 mM acetic acid, 50 mM MES, and 100 mM Tris-HCl with 0.1 mM IPP as substrate. Magnesium ion dependence was investigated with 1 mM to 20 mM MgCl2. […] Reactions were initiated by the addition of enzyme and quenched by the addition of BIOMOL Green.
(§3) Controls included assays without enzyme and without substrate. All enzyme assays were performed at an appropriate enzyme concentration so that the reaction velocity was linear and proportional to the enzyme concentration during the incubation time period. Kinetic data was fitted using Prism (GraphPad Software) to the Michaelis-Menten equation to compute KM and kcat. At least triplicate assays were performed for all data points. Resulting Findings and Systems, Methods, and Platforms

The next assay concerns the target T3, A. thaliana Nudx1 (Arabidopsis thaliana, UniProt Q9CA40).
T3 construct: The open reading frames (ORFs) of Arabidopsis Nudix genes were PCR-amplified from cDNA; His8 (N, cleaved yes); made in house; host or cells: E. coli BL21(DE3)
The assay is described as follows: Phosphatase activity / steady-state kinetics of recombinant AtNudx1 (BIOMOL Green phosphate detection). It is filed as biochemical. To be noted: for Km / kcat: substrate of AtNudx1, 100 mM TAPS pH 8.5, 10 mM MgCl2, 37° C., means ± SD, n = 3. The method, then:
as §1, §2, §3

The next assay concerns FPP synthase. To be noted: cited from earlier work.

T3 sequence (Q9CA40 whole entry): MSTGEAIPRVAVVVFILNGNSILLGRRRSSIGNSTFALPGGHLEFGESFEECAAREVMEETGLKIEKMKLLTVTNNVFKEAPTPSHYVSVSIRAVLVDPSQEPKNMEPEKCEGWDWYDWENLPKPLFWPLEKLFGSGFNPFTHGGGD

`C[C@@](O)(CCOP(=O)(O)O)CC(=O)O` [MVAP, phosphomevalonate]: the Km on AtPMK was 12 µM. The “phosphatase activity with the compound as substrate” value (from here on “phosphatase activity”) at A. thaliana Nudx3 (AtNudx3) and at A. thaliana Nudx1 (AtNudx1) was “No phosphatase activity was detected” each time.
For the compound `CC(C)=CCC/C(C)=C/COP(=O)(O)OP(=O)(O)O` [GPP, geranyl diphosphate], the Km came to 53 ± 13 µM at A. thaliana Nudx3 and 8.3 ± 2.5 µM at A. thaliana Nudx1. Moreover, the values for the kcat at A. thaliana Nudx3 and on A. thaliana Nudx1 were 2.7 ± 0.3 s⁻¹ and 2.0 ± 0.3 s⁻¹, respectively.
As for `Nc1nc2c([nH]c(=O)n2[C@H]2C[C@H](O)[C@@H](COP(=O)(O)OP(=O)(O)OP(=O)(O)O)O2)c(=O)[nH]1` [8-oxo-dGTP], the “phosphatase activity” value on A. thaliana Nudx3 (AtNudx3) is listed as “unable to dephosphorylate”. Moreover, on A. thaliana Nudx1, the Km was determined as 33 ± 2 µM and the kcat came out at 4.5 ± 0.1 s⁻¹.
Consider `C=C(C)CCOP(=O)(O)OP(=O)(O)O` [IPP, isopentenyl diphosphate], for which the “fold higher catalytic efficiency” value on A. thaliana Nudx3 (AtNudx3, compared to GPP and FPP as substrates) was determined as 3 fold. In addition, the Km on A. thaliana Nudx3 came out at 36 ± 8 µM; on A. thaliana Nudx1, 8 ± 0.6 µM. Further, the kcat at A. thaliana Nudx3 amounted to 5.5 ± 0.3 s⁻¹; at A. thaliana Nudx1 it was 1.11 ± 0.02 s⁻¹. Also, the “fold lower specific activity at pH 6.5 than at the optimal pH of 8.5” value on A. thaliana Nudx1 (AtNudx1, IPP as substrate, 37° C.) is on record as 7 fold.
Take mevalonate diphosphate [(R)-MVAPP]: at A. thaliana Nudx3, the Km was 125 ± 36 µM and the turnover number (kcat) came out at 1.5 ± 0.2 s⁻¹. In addition, the “fold less efficient as a substrate (catalytic efficiency)” value at A. thaliana Nudx1 (AtNudx1, compared with IPP, DMAPP, GPP and FPP) worked out at 100 fold. Moreover, on A. thaliana Nudx1, the Km came out at 240 ± 60 µM and the kcat came to 0.51 ± 0.06 s⁻¹.
As to `CC(C)=CCC/C(C)=C/COP(=O)(O)O` [GP, geranyl phosphate], the “phosphatase activity” value on A. thaliana Nudx3 (AtNudx3) and at A. thaliana Nudx1 (AtNudx1) was “No phosphatase activity was detected” in each case.
Take `CC(C)=CCOP(=O)(O)O` [DMAP, dimethylallyl phosphate]: in the assay with FPP synthase, the “inhibition of FPP synthase” value was “competitively inhibited”. Moreover, the “phosphatase activity” value on A. thaliana Nudx3 (AtNudx3) and on A. thaliana Nudx1 (AtNudx1) was “No phosphatase activity was detected” each time.
For `CC(C)=CCC/C(C)=C/CC/C(C)=C/COP(=O)(O)O` [FP, farnesyl phosphate], the “phosphatase activity” value at A. thaliana Nudx3 (AtNudx3) and at A. thaliana Nudx1 (AtNudx1) was “No phosphatase activity was detected” each time.

Usually Km stands for the substrate concentration at which the rate is half of its maximum. What is called kcat is the maximal rate divided by the concentration of active sites.
